The values below come from US8586307B2, “Methods for diagnosing epigenetic, transgenerational effects of environmental toxicants on mammalian germ-lines and treating associated diseases” (priority 2005, dated 2013).

Data set [1] can be described thus: General observations (body weight, litter size, serum testosterone, other tissues). Type of data set: in vivo, rat. On the procedure:
In Vivo Procedures: Gestating outbred Sprague-Dawley and inbred Fisher mother rats from timed, pregnant colonies housed at the Washington State University Vivarium, were given intraperitoneal injections of vinclozolin (100 mg/kg/day) and methoxychlor (200 mg/kg/day) from embryonic day 8-15 (E8-E15, sperm positive vaginal smear date=E0) of gestation (F0 generation) as previously described. Gestating mothers administered vehicle, sesame oil or DMSO, served as controls. At least 6 lines (individual F0 injected females) were generated for controls and treated groups for these analyses. Male rats from control and treated groups were collected at P60-P180 for analyses. F1 treated males were bred to F1 treated females to generate the F2 treated generation and F2 treated males were bred to F2 treated females to generate the F3 generation and the F3 were bred in the same manner to generate the F4 generation. Rats for the control groups were bred in the same manner for all the generations. No inbreeding or sibling crosses were generated. The outcross group (VOC) were generated by breeding the F2 treated males with wild-type females (total of 6 litters) and reverse outcross group (RVOC) was generated by breeding F2 treated females with wild-type males (total of 3 litters). Control (n=4) and treated (n=4) male offspring from the F1 generation from Fisher strain rats were collected at P6 for DNA methylation analysis, see below. All procedures have been approved by the Washington State University Animal Care Committee. The number of animals used for replicates in the experiments (i.e. n value) are as follows for vinclozolin treatment: F1 (control 11, treated 12); F2 (control 19, treated 30); F3 (control 19, treated 26); F4 (control 10, treated 17); VOC (18); and RVOC (6). For methoxychlor treatment animal number was for F1 (control 6, treated 9) and F2 (control 16, treated 22).

The subject of another data set is F1 generation testis. As to conditions: cited from earlier work.

Consider `COc1ccc(C(c2ccc(OC)cc2)C(Cl)(Cl)Cl)cc1` [methoxychlor], for which the serum testosterone levels result in data set [1] (all the animals) is listed as “normal”. In addition, the “effect on total body weight” value in data set [1] (endocrine disruptor treatment, F1) is “no effect”. In data set [1] (rat, in vivo), the “gross abnormality in any other tissues examined” value is “No gross abnormality”. Further, the “adult F1 generation testis phenotype” value in the data set on F1 generation testis (gestating mother exposed E8-E15, 100 or 200 mg/kg i.p. daily) is “reduced spermatogenic capacity, increased spermatogenic cell apoptosis and decreased sperm number and motility”. For the same molecule, the “effect on the F1 generation testis” value in the data set with F1 generation testis (transient exposure E15-E20) is “no effect”.
